Assay results published in patent US20230183640A1, “METABOLIC INHIBITORS WITH EFFICACY FOR INHIBITING SULFIDE PRODUCTION IN HARSH ENVIRONMENTS” (MC (US) 3 LLC, priority 2020, published 2023).

Experiments:
[1] = test system: Desulfovibrio alaskensis 14563; assay: H2S and Log (Growth) efficacy against SRB, 96-Well Plate Method; assay type: cell-based
Experimental: A lyophilized Desulfovibrio alaskensis 14563, Desulfovibrio longus 51456, and Desulfovibrio gabonensis 700201 pure cultures received from ATCC were resuspended individually in 500 ul of MB 1250. Aseptically, the content was transferred to a 5-mL tube of MB1250 medium. The cultures were incubated in an anaerobic chamber at 30° C. for 72 hrs. Subsequently, an individual stock culture with a final concentration of 25% glycerol were prepared by adding equal volumes of culture and 50% glycerol. 1 ml of the cultures were then transferred to 2-ml cryogenic vials and stored at −80° C. The purity of the stock cultures was evaluated through PCR, by amplifying the 16S rDNA region, and thus, it was verified that the original ATCC sample was a pure culture. 48-hour cultures of ATCC Desulfovibrio alaskensis 14563, Desulfovibrio longus 51456, and Desulfovibrio gabonensis 700201 were prepared in an anaerobic chamber. Each culture was prepared as a 1:10 culture by taking 1 milliliter (mL) of a pure culture and inoculating 9 milliliters (mL) of fresh MB1250 media. The Desulfovibrio alaskensis 14563 and Desulfovibrio gabonensis 700201 were all grown at 30° C. and the Desulfovibrio longus 51456 culture was grown at 35° C.
After the 48-hour incubation, 600 microliters (μL) were taken from each culture and optical density (OD) was measured using a Thermofisher Spectronic 200 Spectrophotometer at 600 nm. Each culture was diluted to 0.05 OD600 in fresh MB1250 media and added to the 96 well plates. Edge wells were not used due to their inherent variability and evaporation of the media. Each of the components were added at their respective concentrations for a final volume of 500 μL per well. In Table 3, 6 and 7, the concentrations of the compound used for the experiments are listed. Each experiment was done with at least three replicates for different treatments and non-treatment controls. […] Plates were then sealed with a titer-top and placed into anaerobic boxes and incubated in an anaerobic incubator at 30° C.
At each time point, sulfide samples were taken, and enumeration plates were made. Enumeration plates were made to determine the log growth in each dosed sample. For this process, enumeration plates were prepared by adding 180 μL fresh media MB1250 containing 0.01 wt % ferrous ammonium sulfate. 20 μL was taken from each well of the challenge plates and transferred to the enumeration plates using a 20-200 μL multichannel pipette. Enumeration plates were mixed three times using the multichannel pipette and serial diluted down the plate tenfold (20 μL into 180 μL). This serial dilution process was repeated for all challenge plate rows giving a total of 6 enumeration plates.
After 7 days these enumeration plates were read. The ferrous ammonium sulfate in each plate would be converted to iron sulfide, changing wells with SRB growth from clear to black. By counting the number of black wells in a row, the log growth from the original well in the challenge plate can be determined.
To determine hydrogen sulfide production in each sample, sulfide samples were also taken from each challenge plate. From each well, 9 μL were taken and added to 60 μL of 2% zinc acetate with 0.02% acetic acid. Then, 180 μL of milliQ water was added. 60 μL of stock solution 1 containing 64% sulfuric acid, <1% Dimethyl-4-phenylenediamine (DMPD), water to 100% was added to each well on the plates. This was followed by 3 μL of stock solution 3 containing 50% Iron (III) chloride. All chemicals are ordered from Fisher Scientific and used as received. These were mixed three times and read after 15 minutes. The plates were read at 670 nm using a Biotek microplate reader. Absorbance readings were converted to mM using a standard curve and this was converted to parts per million using the molar mass of sulfur. The standard curves were made using sodium sulfide nonahydrate solutions to give final solutions of 0, 0.125, 0.25 0.5, 1.0, and 1.5 ppm.

[2] = test system: sulfate reducing bacteria; assay: Efficacy in inhibiting H2S production from sulfate reducing bacteria; assay type: cell-based
Experimental: To understand the hydrogen sulfide inhibition efficacy of the N-hydroxycarboxamide compounds of the present invention, several compounds were tested. Some compounds that can be used in this H2S inhibiting composition are disclosed in Table 2. For the testing procedures, the compounds were dissolved in DMSO, resulting in a stock solution of about 8000-100000 ppm, which was subsequently diluted in 96-well plates or 10 mL serum vials containing media and selected culture to give varying concentrations from 0.09 to 1000 ppm of the compounds in final solution for efficacy testing.
Strains of commonly found bacteria were used for testing the efficacy of the compounds, viz. Desulfovibrio alaskensis, Desulfovibrio longus and Desulfovibrio gabonensis. Media for the cultures was also prepared by using a standard method. The cultures were aseptically used and incubated under anaerobic conditions. Two well established methods were used for testing various compounds:
The compounds C1, C12, C14, C15 and C16 were tested individually to understand each of their efficacies in inhibiting the H2S production from sulfate reducing bacteria, under standard temperature and pressure conditions. The efficacy of compounds C14 and C15 against hydrogen sulfide production are disclosed in Example 1, Tables 6 and 7.

O=C(CCCCCCC(=O)NO)NO [C14]
H2S ([1]; Table 6 run, 2 days, 7.615 PPM): 71.3 PPM | Log (Growth) ([1]; Table 6 run, 2 days, 7.615 PPM): 7.0 | H2S ([1]; Table 6 run, 2 days, 15.75 PPM): 56.4 PPM | Log (Growth) ([1]; Table 6 run, 2 days, 15.75 PPM): 8.0 | H2S ([1]; Table 6 run, 2 days, 31.25 PPM): 56.3 PPM | Log (Growth) ([1]; Table 6 run, 2 days, 31.25 PPM): 7.3 | H2S ([1]; Table 6 run, 2 days, 125 PPM): 131.9 PPM | Log (Growth) ([1]; Table 6 run, 2 days, 125 PPM): 8.0 | H2S ([1]; Table 6 run, 2 days, 500 PPM): 54.6 PPM | Log (Growth) ([1]; Table 6 run, 2 days, 500 PPM): 7.7 | H2S ([1]; Table 6 run, 2 days, 1000 PPM): 117.5 PPM | Log (Growth) ([1]; Table 6 run, 2 days, 1000 PPM): 7.7 | H2S ([1]; Table 6 run, 5 days, 7.615 PPM): 45.6 PPM | Log (Growth) ([1]; Table 6 run, 5 days, 7.615 PPM): 7.3 | H2S ([1]; Table 6 run, 5 days, 15.75 PPM): 34.7 PPM | Log (Growth) ([1]; Table 6 run, 5 days, 15.75 PPM): 7.3 | H2S ([1]; Table 6 run, 5 days, 31.25 PPM): 29.0 PPM | Log (Growth) ([1]; Table 6 run, 5 days, 31.25 PPM): 7.3 | H2S ([1]; Table 6 run, 5 days, 125 PPM): 45.0 PPM | Log (Growth) ([1]; Table 6 run, 5 days, 125 PPM): 7.3 | H2S ([1]; Table 6 run, 5 days, 500 PPM): 42.2 PPM | Log (Growth) ([1]; Table 6 run, 5 days, 500 PPM): 7.0 | H2S ([1]; Table 6 run, 5 days, 1000 PPM): 38.6 PPM | Log (Growth) ([1]; Table 6 run, 5 days, 1000 PPM): 8.0 | activity in reducing H2S production ([2]; Tables 6 and 7): did not show significant activity

CCCCCCCC(=O)NO [C16]
H2S ([1]; Table 7 run, 2 days, 7.615 PPM): 83.5 PPM | Log (Growth) ([1]; Table 7 run, 2 days, 7.615 PPM): 7.7 | H2S ([1]; Table 7 run, 2 days, 15.75 PPM): 76.9 PPM | Log (Growth) ([1]; Table 7 run, 2 days, 15.75 PPM): 7.7 | H2S ([1]; Table 7 run, 2 days, 31.25 PPM): 35.1 PPM | Log (Growth) ([1]; Table 7 run, 2 days, 31.25 PPM): 7.3 | H2S ([1]; Table 7 run, 2 days, 125 PPM): 13.3 PPM | Log (Growth) ([1]; Table 7 run, 2 days, 125 PPM): 6.3 | H2S ([1]; Table 7 run, 2 days, 500 PPM): 2.7 PPM | Log (Growth) ([1]; Table 7 run, 2 days, 500 PPM): 5.3 | H2S ([1]; Table 7 run, 2 days, 1000 PPM): 2.2 PPM | Log (Growth) ([1]; Table 7 run, 2 days, 1000 PPM): 3.0 | H2S ([1]; Table 7 run, 5 days, 7.615 PPM): 27.7 PPM | Log (Growth) ([1]; Table 7 run, 5 days, 7.615 PPM): 7.3 | H2S ([1]; Table 7 run, 5 days, 15.75 PPM): 29.2 PPM | Log (Growth) ([1]; Table 7 run, 5 days, 15.75 PPM): 7.0 | H2S ([1]; Table 7 run, 5 days, 31.25 PPM): 22.1 PPM | Log (Growth) ([1]; Table 7 run, 5 days, 31.25 PPM): 7.3 | H2S ([1]; Table 7 run, 5 days, 125 PPM): 6.9 PPM | Log (Growth) ([1]; Table 7 run, 5 days, 125 PPM): 5.0 | H2S ([1]; Table 7 run, 5 days, 500 PPM): 2.1 PPM | Log (Growth) ([1]; Table 7 run, 5 days, 500 PPM): 4.3 | H2S ([1]; Table 7 run, 5 days, 1000 PPM): 2.0 PPM | Log (Growth) ([1]; Table 7 run, 5 days, 1000 PPM): 0.0 | efficacy for inhibiting hydrogen sulfide production ([2]; anaerobic conditions): high efficacy
